From patent US9212204B2, “Treatment of rett syndrome using glycyl-L-2-methylprolyl-L-glutamic acid” (priority 2011, dated 2015)
Non-standard residues stand in square brackets, D forms with d. Residues, ends and D or L forms follow the SMILES beside them. αMeP = C[C@@]1(C(=O)O)CCCN1

Key:
[1] = tested on: GFAP-positive reactive astrocytes; assay: GFAP staining, astrocytosis in aged brains; assay type: in vivo, rat; settings: i.p.; 18-month old rats; 3 d after injection; vs vehicle p<0.05, particularly 0.12 and 12 mg/kg
Description: To carry out these studies, tissues were fixed and embedded in paraffin and sections obtained using standard methods. Coronal sections (6 μm) containing the level of the hippocampus were cut and mounted on chrome-alum-coated slides for staining. The sections were deparaffinized in xylene, dehydrated in a series of ethanol and incubated in 0.1 M phosphate buffered saline (PBS).
Primary antibodies against glial fibrillary acidic protein (GFAP) and proliferating cell nuclear antigen (PCNA) were used to mark reactive glial cells and cells undergoing apoptosis and proliferation, respectively. […]
Control sections were processed in the same way except the primary antibody was omitted from the incubation solution. The number of PCNA positive cells was counted in the subventricular zone and the GFAP positive cells was scored in the cerebral cortex.
Using GFAP as a marker for reactive astrocytes, the number of GFAP-positive cells was counted in the CA4 sub-region of the hippocampus of aged rats treated with G-2MeP or vehicle. […]
We also evaluated effects of G-2-MePE on astrocytosis in the CA4 sub-region of the hippocampus in aged rats. […]
GFAP-positive cells were counted using a computerised program (Discovery 1). G-2-MePE was administered intra-peritoneally and the numbers of GFAP-positive cells were assessed 3d after the injection. […]

[2] = tested on: neurons in the CA3 region of the hippocampus; assay: Neuron soma size in the hippocampus; assay type: in vivo, mouse
Description: We also measure the effect of G-2-MePE treatment on neuron soma size in the hippocampus. Mice are treated with G-2-MePE as described above for locomotor activity.

[3] = tested on: 12-month old male Wistar rats; assay: Morris water maze test, spatial reference memory; assay type: in vivo, rat
Description: We used male Wistar rats 12, 8 or 4 months of age.
The Morris water maze test was conducted using a black plastic pool filled to a depth of 25 cm with water colored black with a non-toxic dye. […] The platform remained in that position though the training.
The experiment used extra-maze cues (i.e. objects in the room surrounding the pool) that the rats could use to navigate to the platform. Distinctive posters or paintings were hung on the walls. Furniture in the room was not moved during the testing period. The placement of the pool allowed the experimenter an easy access to it from all sides. The pool was emptied and refilled daily during testing, with water at 25° C.+/−2° C.
The furthermost point in the pool (relative to the position of the experimenter) was designated as “north”, and the other compass points “east”, “south” and “west” were the right-most, bottom and left-most points of the pool respectively. These points were marked with tape on the outside of the pool.
Rats in each group were trained to swim to the submerged platform. The rats received six 60-second trials per day for four consecutive days. A trial began by placing the rat into the water facing the wall of the pool, at one of four start locations (north, south, east, west). […]

SMILES: C[C@@]1(C(=O)N[C@@H](CCC(=O)O)C(=O)O)CCCN1C(=O)CN [Example G-2-MePE, Glycyl-L-2-methylprolyl-L-glutamic acid] (H-Gly-[αMeP]-Glu-OH)
- number of reactive astrocytes (GFAP) in the CA4 region of the hippocampus [1]: reduced
- average soma size ([2]; KO animals): increases
- soma size ([2]; wild type animals): little or no effect
- time needed to reach the platform, retention phase ([3]; high (4.8 mg/day) or low (0.96 mg/day) dose, vs saline-treated controls, 12 month old rats): decrease in the time needed to reach the platform
- retention of the original water maze task ([3]; high dose 4.8 mg/day s.c. minipump over 3 weeks, 4-week delay, vs 3-week vehicle): improved the retention
